EC50 and CC50 data for eleven compounds are collected here from ChEMBL document CHEMBL4052640 (Eur J Med Chem, 2017).

Molecules are shown by their SMILES.

The test system of data set [1] is Mammalian orthoreovirus 1. It counts as functional. To be noted: Mammalian orthoreovirus 1, Vero.
In a further data set the test system is Punta Toro virus. It counts as functional. To be noted: Vero.
A further data set concerns Human respirovirus 3. The data set is described as follows: microbe, parasite or virus in culture. To be noted: Human respirovirus 3, Vero.
Data set [2] relates to Respiratory syncytial virus. It counts as functional, cell-based. To be noted: human respiratory syncytial virus, HeLa.
Another data set concerns Influenza B virus. As to the kind of experiment: microbe, parasite or virus in culture. To be noted: B/Ned/537/05, MDCK.
Data set [3] can be described thus: cells. The following applies: MDCK.
Data set [4] deals with Coxsackievirus B4. The class given is functional, cell-based. The following applies: Enterovirus B, HeLa.
The subject of data set [5] is Vesicular stomatitis virus. As to the kind of experiment: microbe, parasite or virus in culture. To be noted: HeLa.
The next data set relates to Sindbis virus. It counts as functional. The following applies: Vero.
Another data set deals with Yellow fever virus. As to the kind of experiment: microbe, parasite or virus in culture. To be noted: Vero.
Data set [6] is described as follows: cells. To be noted: Influenza A virus, MDCK.
Data set [7] concerns Influenza A virus. The class given is functional, cell-based. To be noted: A/Ned/378/05(H1N1), MDCK.
The test system of data set [8] is Influenza A virus. The class given is functional, cell-based. The following applies: A/Ned/378/05(H1N1), MDCK. The source holds these as a separate data set.
A short description of data set [9]: cells. To be noted: Influenza A virus, MDCK. This is another data set of the same source.
In data set [10] the test system is Coxsackievirus B4. The class given is functional. The following applies: Enterovirus B, Vero.
The subject of the next data set is MDCK. As to the kind of experiment: Cytotoxicity against dog MDCK cells assessed as reduction in cell viability measured after 5 to 6 days by MTS assay. The class given is cell-based, Canis lupus familiaris.

For the compound `CC1(C)N=C(N)N=C(N)N1c1ccccc1Cl`, the EC50 in [1] is over 100 µM; in the data set on Punta Toro virus it was over 100 µM; with Human respirovirus 3, over 100 µM; in data set [2] it was 48 µM; with Influenza B virus it was 56 µM; in the data set “cells [3]”, 19 µM. The EC50 in the data set with Coxsackievirus B4 [4] is over 100 µM; in data set [5] it was over 100 µM; in the data set with Sindbis virus, over 100 µM; in the data set on Yellow fever virus, over 100 µM; in “cells [6]” it was over 83 µM; in the data set with Influenza A virus [7], over 100 µM. Besides, the EC50 in the data set on Influenza A virus [8] was over 100 µM; in the data set “cells [9]”, 34 µM; in the data set on Coxsackievirus B4 [10], over 100 µM. In addition, the CC50 in the data set on MDCK is over 100 µM.

`CC1(C)N=C(N)N=C(N)N1c1ccc(Cl)cc1Cl`: the EC50 (in data set [1]; in the data set with Punta Toro virus; in the data set on Human respirovirus 3; in [2]; in the data set with Influenza B virus; in “cells [3]”) was over 100 µM throughout. Besides, the EC50 was over 100 µM in the data set with Coxsackievirus B4 [4]; over 100 µM in [5]; over 100 µM with Sindbis virus; over 100 µM in the data set with Yellow fever virus; over 83 µM in “cells [6]”; over 100 µM with Influenza A virus [7]. Also, the EC50 was over 100 µM in the data set on Influenza A virus [8], at least 83 µM in “cells [9]” and over 100 µM in the data set on Coxsackievirus B4 [10]. In the data set with MDCK, the CC50 was over 100 µM.

Turning to `CC1(C)N=C(N)N=C(N)N1c1ccc(C(=O)O)cc1`, the EC50 (in [1]; in the data set with Punta Toro virus; with Human respirovirus 3; in data set [2]; with Influenza B virus; in the data set “cells [3]”) was over 100 µM throughout. The EC50 is over 100 µM in the data set with Coxsackievirus B4 [4]; over 100 µM in [5]; over 100 µM in the data set on Sindbis virus; over 100 µM in the data set on Yellow fever virus; over 83 µM in “cells [6]”; over 100 µM in the data set with Influenza A virus [7]. The EC50 in the data set on Influenza A virus [8] is over 100 µM; in “cells [9]” it was over 83 µM; in the data set with Coxsackievirus B4 [10], over 100 µM. The CC50 in the data set with MDCK is over 100 µM.

Turning to `CC(C)C1(C)N=C(N)N=C(N)N1c1ccc(Cl)cc1` (configuration not stated), the EC50 was over 100 µM in data set [1]; over 100 µM with Punta Toro virus; over 100 µM with Human respirovirus 3; 0.8 µM in [2]; 2.8 µM in the data set on Influenza B virus; 1 µM in “cells [3]”. The EC50 with Coxsackievirus B4 [4] was over 100 µM; in [5], over 100 µM; in the data set with Sindbis virus it was over 100 µM; in the data set with Yellow fever virus, over 100 µM; in “cells [6]” it was 24 µM; with Influenza A virus [7], 45 µM. Besides, the EC50 in the data set with Influenza A virus [8] is 68 µM; in the data set “cells [9]”, 33 µM; with Coxsackievirus B4 [10] it was over 100 µM. For the same compound, in the data set with MDCK, the CC50 is over 100 µM.

Consider `NC1=NC2(CCCC2)N(c2ccc(Cl)cc2)C(N)=N1`, for which the EC50 in data set [1] is over 100 µM; in the data set with Punta Toro virus, over 100 µM; with Human respirovirus 3, over 100 µM; in [2] it was 8 µM; in the data set with Influenza B virus, 18 µM; in “cells [3]”, 6.1 µM. The EC50 was over 100 µM in the data set with Coxsackievirus B4 [4]; over 100 µM in data set [5]; over 100 µM with Sindbis virus; over 100 µM in the data set with Yellow fever virus; over 83 µM in “cells [6]”; over 100 µM with Influenza A virus [7]. Besides, the EC50 is over 100 µM with Influenza A virus [8], over 83 µM in “cells [9]” and over 100 µM in the data set on Coxsackievirus B4 [10]. The CC50 in the data set on MDCK is over 100 µM.

`CC1(C)N=C(N)N=C(N)N1c1ccc([N+](=O)[O-])cc1`: the EC50 in data set [1] is over 100 µM; with Punta Toro virus, over 100 µM; in the data set on Human respirovirus 3, over 100 µM; in data set [2], 27 µM; in the data set with Influenza B virus it was 35 µM; in the data set “cells [3]”, 7.8 µM. For the same compound, the EC50 in the data set on Coxsackievirus B4 [4] was over 100 µM; in data set [5], over 100 µM; with Sindbis virus it was over 100 µM; with Yellow fever virus, over 100 µM; in “cells [6]”, over 83 µM; in the data set with Influenza A virus [7], over 100 µM. Also, the EC50 in the data set with Influenza A virus [8] was over 100 µM; in “cells [9]” it was over 83 µM; with Coxsackievirus B4 [10] it was over 100 µM. Further, the CC50 in the data set with MDCK was over 100 µM.

Turning to `CCC1(C)N=C(N)N=C(N)N1c1ccc(Cl)cc1` (configuration not stated), the EC50 in data set [1] is over 100 µM; in the data set on Punta Toro virus it was over 100 µM; with Human respirovirus 3 it was over 100 µM; in data set [2] it was 5.4 µM; in the data set on Influenza B virus, 8.3 µM; in “cells [3]”, 2.2 µM. For the same compound, the EC50 was over 100 µM in the data set on Coxsackievirus B4 [4]; over 100 µM in data set [5]; over 100 µM in the data set on Sindbis virus; over 100 µM in the data set on Yellow fever virus; over 83 µM in the data set “cells [6]”; over 100 µM in the data set with Influenza A virus [7]. For the same compound, the EC50 in the data set on Influenza A virus [8] was over 100 µM; in the data set “cells [9]”, over 83 µM; in the data set with Coxsackievirus B4 [10], over 100 µM. Moreover, in the data set with MDCK, the CC50 was over 100 µM.

On to `CCOC(=O)c1ccc(N2C(N)=NC(N)=NC2(C)C)cc1`, for which the EC50 (in data set [1]; with Punta Toro virus; with Human respirovirus 3; in [2]; in the data set on Influenza B virus; in “cells [3]”) was over 100 µM throughout. For the same compound, the concentration giving a half-maximal response (EC50) in the data set with Coxsackievirus B4 [4] is over 100 µM; in data set [5], over 100 µM; in the data set with Sindbis virus it was over 100 µM; in the data set with Yellow fever virus, over 100 µM; in “cells [6]”, over 83 µM; with Influenza A virus [7], over 100 µM. The EC50 with Influenza A virus [8] was over 100 µM; in the data set “cells [9]”, over 83 µM; in the data set with Coxsackievirus B4 [10], over 100 µM. The CC50 with MDCK was over 100 µM.

As to `CC1(C)N=C(N)N=C(N)N1c1ccc(Br)cc1`, the EC50 in data set [1] is over 100 µM; in the data set on Punta Toro virus, over 100 µM; with Human respirovirus 3, over 100 µM; in [2] it was 0.16 µM; in the data set with Influenza B virus, 2.9 µM; in “cells [3]”, 1 µM. Further, the EC50 is over 100 µM with Coxsackievirus B4 [4]; over 100 µM in data set [5]; over 100 µM with Sindbis virus; over 100 µM with Yellow fever virus; 19 µM in the data set “cells [6]”; 21 µM in the data set on Influenza A virus [7]. For the same compound, the EC50 is 7.3 µM in the data set on Influenza A virus [8], 39 µM in the data set “cells [9]” and over 100 µM in the data set with Coxsackievirus B4 [10]. The CC50 in the data set with MDCK turned out to be 53 µM.

As for `Cc1ccc(N2C(N)=NC(N)=NC2(C)C)cc1`, the EC50 in data set [1] is over 100 µM; in the data set on Punta Toro virus it was over 100 µM; in the data set with Human respirovirus 3, over 100 µM; with Influenza B virus, 11 µM; in the data set “cells [3]” it was 1.2 µM; in the data set with Coxsackievirus B4 [4], over 100 µM. In addition, the EC50 in [5] was over 100 µM; in the data set with Sindbis virus, over 100 µM; in the data set on Yellow fever virus, over 100 µM; in the data set “cells [6]” it was 34 µM; with Influenza A virus [7], 48 µM; with Influenza A virus [8] it was 34 µM. The EC50 is 53 µM in the data set “cells [9]” and over 100 µM in the data set with Coxsackievirus B4 [10]. Moreover, in the data set on MDCK, the CC50 is over 100 µM.

With `NC(=O)c1ncn([C@@H]2O[C@H](CO)[C@@H](O)[C@H]2O)n1` [RIBAVIRIN], the EC50 in [1] is over 250 µM; in the data set on Punta Toro virus it was 29 µM; in data set [2], 5.8 µM; in the data set with Sindbis virus it was over 250 µM; with Yellow fever virus, over 250 µM; in the data set with Influenza A virus [7] it was 10 µM. For the same compound, the half-maximal effective concentration (EC50) was 7.6 µM with Influenza A virus [8] and over 250 µM in the data set with Coxsackievirus B4 [10].
